Measured values: US20220370556A1, “Method of Treatment” (Volution Immuno Pharmaceuticals SA, priority 2019, published 2022)

How the values were obtained:
[1] = target: Human BLT2 G-protein coupled receptor; conditions: ref. [13]; cited from earlier work
[2] = target: T1, nomacopan (EV576, OmCI protein, Coversin), Ornithodoros moubata, mature form, amino acids 19 to 168 of SEQ ID NO: 2 (SEQ ID NO: 4) (Ornithodoros moubata, UniProt Q5YD59); assay: Fluorescence titration of LTB4 binding to nomacopan; conditions: 100 nM nomacopan in PBS, 20° C., excitation 280 nm, emission 340 nm
T1 sequence (Q5YD59 19-168): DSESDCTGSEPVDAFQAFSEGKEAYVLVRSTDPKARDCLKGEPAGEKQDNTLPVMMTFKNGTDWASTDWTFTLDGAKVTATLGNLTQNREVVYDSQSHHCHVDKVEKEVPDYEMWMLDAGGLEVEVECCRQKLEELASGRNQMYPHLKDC
Source text: The ability of a nomacopan-type protein to bind LTB4 may be determined by standard in vitro assays known in the art, for example by means of a competitive ELISA between nomacopan and anti-LTB4 antibody competing for binding to labelled LTB4, by isothermal titration calorimetry or by fluorescence titration. […] For example, binding activity for LTB4 (Caymen Chemicals, Ann Arbor, Mich., USA) in phosphate buffered saline (PBS) can be quantified in a spectrofluorimeter e.g. a LS 50 B spectrofluorimeter (Perkin-Elmer, Norwalk, Conn., USA). This may be carried out by may be carried out as follows:
Purified 100 nM solutions of nomacopan, in 2 mL PBS were applied in a quartz cuvette (10 mm path length; Hellma, Mühlheim, Germany) equipped with a magnetic stirrer.
Temperature was adjusted to 20° C. and, after equilibrium was reached, protein Tyr/Trp fluorescence was excited at 280 nm (slit width: 15 nm). The fluorescence emission was measured at 340 nm (slit width: 16 nm) corresponding to the emission maximum. A ligand solution of 30 μM LTB4 in PBS was added step-wise, up to a maximal volume of 20 μL (1% of the whole sample volume), and after 30 s incubation steady state fluorescence was measured. […]

[3] = target: Human BLT1 G-protein coupled receptor; conditions: high affinity receptor, ref. [12]; cited from earlier work

## CCCCC/C=C\C[C@@H](O)/C=C/C=C/C=C\[C@@H](O)CCCC(=O)O [LTB4, Leukotriene B4]
[1]
  Kd: 23 nM
[2]
  Kd: 0.1 to 0.3 nM
[3]
  Kd: 0.39 to 1.5 nM
